The values below come from PubChem BioAssay (NCI).

Some test systems named below: LOX IMVI melanoma; SK-MEL-5 melanoma; RPMI-8226 leukemia; U251 CNS; UACC-62 melanoma; SR leukemia; CAKI-1 renal; NCI-H522 lung; MDA-MB-435; HCC-2998 colon.
Common to all, as to assay: NCI-60 cell line screen, 48 h

SMILES strings stand for the structures. Where “and” joins values, the source holds several entries; their conditions need not be identical. Equal entries are not always repeated.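 In this assay, cells in 96-well plates receive the compound at five concentrations for 48 hours. Endpoints are linearly interpolated between the surrounding concentrations. The concentration for 50% growth inhibition is given as GI50. TGI is the concentration that stops growth completely.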

Regarding `Cc1cc(NC(=O)NCc2ccc(N3C(N)=NC(N)=NC3(C)C)cc2)ccc1S(=O)(=O)F`, the GI50 in the experiment on LOX IMVI melanoma was 0.824 µM; in the experiment with SK-MEL-5 melanoma, 1.11 µM; in the experiment on RPMI-8226 leukemia, 4.55 µM; with U251 CNS, 0.832 µM; with UACC-62 melanoma it was 0.998 µM; in the experiment with SR leukemia, 0.502 µM. Moreover, the GI50 is over 49.3 µM with CAKI-1 renal, 6.1 µM in the experiment with NCI-H522 lung, 0.456 µM in the experiment with MDA-MB-435 and 1.96 µM with HCC-2998 colon. Further, the TGI in the experiment on LOX IMVI melanoma was over 100 µM; in the experiment on SK-MEL-5 melanoma it was 58.7 µM; in the experiment with RPMI-8226 leukemia it was over 100 µM; with U251 CNS it was over 100 µM; in the experiment on UACC-62 melanoma, over 100 µM; with SR leukemia, over 43.5 µM. In addition, the TGI in the experiment with CAKI-1 renal, in the experiment with NCI-H522 lung, with MDA-MB-435 and with HCC-2998 colon was over 100 µM each time.
On to `CN(C)CCCN1c2ccccc2Sc2ccc(C(F)(F)F)cc21`, for which the GI50 with LOX IMVI melanoma is 1.57 µM; in the experiment on SK-MEL-5 melanoma, 1.57 µM; with RPMI-8226 leukemia, 2.03 µM; in the experiment on U251 CNS it was 1.69 µM; in the experiment with UACC-62 melanoma, 1.46 µM; with SR leukemia, 2.14 µM. The GI50 was 1.54 µM with CAKI-1 renal; 1.39 µM in the experiment with NCI-H522 lung; 1.6 µM with MDA-MB-435; 1.46 µM and 10.5 µM and 4.5 µM with HCC-2998 colon. Besides, the TGI in the experiment on LOX IMVI melanoma is 2.98 µM and 28.9 µM and 29.7 µM; with RPMI-8226 leukemia, 6.06 µM and 35.7 µM and 45.4 µM; in the experiment with U251 CNS, 3.14 µM and 29.6 µM and 29.4 µM; with CAKI-1 renal it was 3.15 µM and 24 µM; with HCC-2998 colon, 2.89 µM and 23.8 µM and 15.8 µM.
With `C=C1C(=O)OC2CC(C)C(/C=C/C(C)=O)=CCC12` (stereo not given), the TGI in the experiment with LOX IMVI melanoma, in the experiment with SK-MEL-5 melanoma, with RPMI-8226 leukemia, in the experiment on U251 CNS, in the experiment on UACC-62 melanoma and in the experiment on SR leukemia was over 100 µM each time. The TGI in the experiment with CAKI-1 renal, in the experiment with NCI-H522 lung, in the experiment with MDA-MB-435 and with HCC-2998 colon was over 100 µM in each case.
Consider `CC1(C)N=C(N)N=C(N)N1c1ccc(CCCC(=O)Nc2ccc(S(=O)(=O)F)cc2)cc1`, for which the GI50 was 6.03 µM with LOX IMVI melanoma; 3.2 µM in the experiment with SK-MEL-5 melanoma; 5.36 µM with RPMI-8226 leukemia; 9.22 µM in the experiment on U251 CNS; 2.24 µM with UACC-62 melanoma; 1.53 µM with SR leukemia. The GI50 in the experiment on CAKI-1 renal is 35 µM; in the experiment with NCI-H522 lung it was 8.4 µM; in the experiment on MDA-MB-435, 3.75 µM; in the experiment with HCC-2998 colon, 14.5 µM. Besides, the TGI with LOX IMVI melanoma is over 100 µM; in the experiment with SK-MEL-5 melanoma, 28.1 µM; with RPMI-8226 leukemia, over 100 µM; with U251 CNS, over 100 µM; in the experiment with UACC-62 melanoma, over 100 µM; in the experiment on SR leukemia, over 100 µM. The TGI in the experiment with CAKI-1 renal, with NCI-H522 lung, in the experiment on MDA-MB-435 and in the experiment with HCC-2998 colon was over 100 µM each time.
Turning to `CC(=O)ON(OCc1ccc2ccccc2c1)C(C)=O`, the GI50 with LOX IMVI melanoma is 85.4 µM; in the experiment with SK-MEL-5 melanoma, 94.7 µM; in the experiment on RPMI-8226 leukemia, over 100 µM; in the experiment with U251 CNS, over 100 µM; with UACC-62 melanoma, over 100 µM; in the experiment with SR leukemia, 86.5 µM. For the same compound, the GI50 in the experiment with CAKI-1 renal, with NCI-H522 lung, in the experiment on MDA-MB-435 and with HCC-2998 colon was over 100 µM each time. For the same compound, the TGI with LOX IMVI melanoma, with SK-MEL-5 melanoma, in the experiment on RPMI-8226 leukemia, with U251 CNS, with UACC-62 melanoma and in the experiment with SR leukemia was over 100 µM in each case. Also, the TGI in the experiment with CAKI-1 renal, in the experiment with NCI-H522 lung, in the experiment with MDA-MB-435 and with HCC-2998 colon was over 100 µM in each case.
With `O=[N+]([O-])c1ccccc1N=Nc1c(O)[nH]c2c(Cl)cccc12`, the TGI was 44.1 µM in the experiment with LOX IMVI melanoma; over 46.5 µM with SK-MEL-5 melanoma; 96.2 µM in the experiment with RPMI-8226 leukemia; over 51.5 µM in the experiment on U251 CNS; over 82.1 µM in the experiment on UACC-62 melanoma; over 69.6 µM in the experiment on SR leukemia. Moreover, the TGI in the experiment on CAKI-1 renal was 26.3 µM; with NCI-H522 lung, 26.1 µM; in the experiment with MDA-MB-435, over 100 µM; in the experiment on HCC-2998 colon it was over 100 µM.
As to `COc1ccc2nc3ccccc3c(NCCNCCO)c2c1`, the GI50 with LOX IMVI melanoma was 0.404 µM; with SK-MEL-5 melanoma, 1.05 µM; in the experiment with RPMI-8226 leukemia, 0.406 µM; in the experiment with U251 CNS, 0.479 µM; in the experiment on UACC-62 melanoma it was 1.09 µM; in the experiment with SR leukemia, 0.214 µM. Moreover, the GI50 in the experiment with CAKI-1 renal was 1.22 µM; in the experiment on NCI-H522 lung it was 0.38 µM; in the experiment with MDA-MB-435 it was 0.474 µM; in the experiment on HCC-2998 colon it was 0.898 µM. Moreover, the TGI in the experiment with LOX IMVI melanoma was found to be 3.75 µM; in the experiment on SK-MEL-5 melanoma it was 2.35 µM; with RPMI-8226 leukemia, 2.73 µM; in the experiment on U251 CNS, 4.35 µM; in the experiment with UACC-62 melanoma, 2.99 µM; in the experiment on SR leukemia, 1.33 µM. The TGI was found to be 6.5 µM with CAKI-1 renal, 1.97 µM in the experiment on NCI-H522 lung, 1.83 µM in the experiment on MDA-MB-435 and 2.5 µM with HCC-2998 colon.
For the compound `COC1C(OC(=O)c2ccc(C)[nH]2)C(O)C(Oc2ccc3c(O)c(NC(=O)c4ccc(O)c(CC=C(C)C)c4)c(=O)oc3c2Cl)OC1(C)C` (stereo not given), the TGI in the experiment with LOX IMVI melanoma came out at 38.4 µM; in the experiment with SK-MEL-5 melanoma, 35.6 µM; with RPMI-8226 leukemia it was 30.4 µM; with U251 CNS, 26.8 µM; in the experiment with UACC-62 melanoma it was 32.9 µM; with SR leukemia it was 56.9 µM. Besides, the TGI in the experiment with CAKI-1 renal was 36.2 µM; in the experiment on NCI-H522 lung it was 29.8 µM; in the experiment with MDA-MB-435, over 100 µM; in the experiment on HCC-2998 colon, 33.2 µM.
On to `O=C1CCC(c2ccccc2)=NN1c1nc2ccccc2s1`, for which the TGI in the experiment on LOX IMVI melanoma is over 100 µM; in the experiment with SK-MEL-5 melanoma, 53.1 µM; with RPMI-8226 leukemia, over 87.9 µM; in the experiment on U251 CNS it was over 100 µM; in the experiment on UACC-62 melanoma it was over 100 µM; with SR leukemia it was over 84.6 µM. The TGI with CAKI-1 renal is over 100 µM; in the experiment on NCI-H522 lung it was 59 µM; in the experiment on MDA-MB-435, 69.7 µM; in the experiment with HCC-2998 colon it was over 61 µM.
Turning to `O=C1/C(=C/c2ccc(Cl)cc2)CCC1CNc1ccc(Cl)cc1` (stereo not given), the TGI with LOX IMVI melanoma was found to be 15.1 µM; in the experiment on SK-MEL-5 melanoma it was 22 µM; with RPMI-8226 leukemia, 6.68 µM; in the experiment with U251 CNS, 29.6 µM; in the experiment on UACC-62 melanoma it was 7.29 µM; in the experiment on SR leukemia, 43.8 µM. For the same compound, the TGI turned out to be 28.9 µM in the experiment with CAKI-1 renal, 3.89 µM in the experiment on NCI-H522 lung, 37.6 µM with MDA-MB-435 and 21.6 µM in the experiment with HCC-2998 colon.
